Data published in US8592410B2, “Cyclic inhibitors of 11BETA-hydroxysteroid dehydrogenase 1” (Vitae Pharmaceuticals, Inc., priority 2008, dated 2013).
pIC50: −log10 of the molar value. Like-named read-outs stand apart in the source and are kept apart here. One block for each compound: values may come before it.

Key:
[1] = target: human recombinant cytochrome P450 3A4 (Homo sapiens (Human), UniProt P08684); assay: Biological Test Example 6: CYP3A4 Inhibition; format: in vitro ADME
[2] = target: T1, human recombinant cytochrome P450 2C19 (Homo sapiens (Human), UniProt P33261); assay: Biological Test Example 8: CYP2C19 Inhibition; conditions: read-out: Biological Test Example 8 CYP2C19, IC50
T1 sequence (P33261 whole entry): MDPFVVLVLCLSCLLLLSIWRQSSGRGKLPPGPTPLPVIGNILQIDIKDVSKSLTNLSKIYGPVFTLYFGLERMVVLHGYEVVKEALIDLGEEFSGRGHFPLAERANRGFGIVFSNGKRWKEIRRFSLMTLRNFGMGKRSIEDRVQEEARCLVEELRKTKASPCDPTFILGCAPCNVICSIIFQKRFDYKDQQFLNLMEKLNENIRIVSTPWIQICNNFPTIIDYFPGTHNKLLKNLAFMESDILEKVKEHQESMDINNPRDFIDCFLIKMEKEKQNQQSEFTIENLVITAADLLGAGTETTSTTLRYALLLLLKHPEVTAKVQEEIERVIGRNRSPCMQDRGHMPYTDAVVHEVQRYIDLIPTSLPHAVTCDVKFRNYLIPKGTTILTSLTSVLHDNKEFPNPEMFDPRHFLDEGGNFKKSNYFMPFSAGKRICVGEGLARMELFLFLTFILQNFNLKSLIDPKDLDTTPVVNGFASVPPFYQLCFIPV

[3] = target: T2, human recombinant cytochrome P450 2C9 (Homo sapiens (Human), UniProt P11712); assay: Biological Test Example 7: CYP2C9 Inhibition (Naproxen O-demethylation); conditions: read-out: Biological Test Example 7 CYP2C9, IC50; [O-methyl-14C]-Naproxen substrate
T2 sequence (P11712 whole entry): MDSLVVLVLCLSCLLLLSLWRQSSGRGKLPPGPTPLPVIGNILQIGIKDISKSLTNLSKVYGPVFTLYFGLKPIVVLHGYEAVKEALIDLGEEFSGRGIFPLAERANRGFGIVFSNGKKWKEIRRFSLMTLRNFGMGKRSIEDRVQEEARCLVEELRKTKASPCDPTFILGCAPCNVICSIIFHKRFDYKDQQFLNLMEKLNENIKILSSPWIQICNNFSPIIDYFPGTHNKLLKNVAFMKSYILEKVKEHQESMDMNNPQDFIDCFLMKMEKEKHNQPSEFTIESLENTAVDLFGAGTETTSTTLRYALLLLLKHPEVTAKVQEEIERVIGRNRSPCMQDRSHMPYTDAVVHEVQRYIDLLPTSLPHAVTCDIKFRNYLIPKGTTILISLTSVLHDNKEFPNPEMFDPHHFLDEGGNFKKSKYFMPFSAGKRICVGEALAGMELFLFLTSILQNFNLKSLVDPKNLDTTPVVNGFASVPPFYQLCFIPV

CYP2C9 [4] = target: T3, CYP2C9 (Homo sapiens (Human), UniProt P11712); assay: Biological Test Example 9: CYP2C9 Inhibition (Invitrogen kit, OOMR fluorogenic substrate); conditions: read-out: Biological Test Example 9 CYP2C9 IC50
T3 sequence (P11712 whole entry): as above

[5] = Biological Test Example 5: Fraction Unbound in Human Plasma (equilibrium dialysis); format: in vitro ADME
CYP2C9 [6] = target: T3, CYP2C9; assay: in vitro
[7] = target: T1, human recombinant cytochrome P450 2C19; assay: biochemical
[8] = target: T2, human recombinant cytochrome P450 2C9
[9] = target: T1, human recombinant cytochrome P450 2C19
CYP2C9 [10] = target: T3, CYP2C9; conditions: pH 8
[11] = target: 11β-HSD1 (human liver microsomes) (Homo sapiens (Human), UniProt P28845); conditions: read-out: Average % control inhibition at 100 nM
Chain of 11β-HSD1 (human liver microsomes) (P28845 whole entry): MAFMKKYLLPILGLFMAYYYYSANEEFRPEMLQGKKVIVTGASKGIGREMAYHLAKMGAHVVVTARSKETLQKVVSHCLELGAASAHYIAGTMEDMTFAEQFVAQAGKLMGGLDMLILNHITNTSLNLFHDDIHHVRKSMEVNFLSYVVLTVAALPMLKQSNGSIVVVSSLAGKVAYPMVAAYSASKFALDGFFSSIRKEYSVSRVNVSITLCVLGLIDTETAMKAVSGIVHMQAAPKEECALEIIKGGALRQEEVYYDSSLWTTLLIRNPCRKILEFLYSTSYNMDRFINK

[12] = read-out: Biological Test Example 6 CYP3A4, IC50

Chain of human recombinant cytochrome P450 3A4 (P08684 whole entry): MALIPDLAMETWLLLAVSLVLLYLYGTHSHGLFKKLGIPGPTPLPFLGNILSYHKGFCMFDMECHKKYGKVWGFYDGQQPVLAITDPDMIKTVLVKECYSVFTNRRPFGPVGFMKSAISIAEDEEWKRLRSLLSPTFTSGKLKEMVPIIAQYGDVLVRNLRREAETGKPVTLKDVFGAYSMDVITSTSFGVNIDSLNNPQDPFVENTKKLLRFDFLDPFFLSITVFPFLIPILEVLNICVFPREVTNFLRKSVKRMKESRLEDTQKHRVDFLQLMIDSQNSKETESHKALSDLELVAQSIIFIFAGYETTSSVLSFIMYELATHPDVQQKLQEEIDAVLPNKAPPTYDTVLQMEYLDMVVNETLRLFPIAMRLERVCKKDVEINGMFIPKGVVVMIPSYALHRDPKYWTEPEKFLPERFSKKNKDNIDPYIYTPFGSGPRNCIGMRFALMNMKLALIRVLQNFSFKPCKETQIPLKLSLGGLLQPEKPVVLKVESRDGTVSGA

- pIC50 [1, 12]: 5.36
- pIC50 [2]: > 6.40
- pIC50 [3]: 5.25
- pIC50 (CYP2C9 [4]): 5.14
SMILES: C[C@@H](c1ccc(Br)cc1)N1CC[C@](CC(C)(C)O)(c2ccc(F)cc2)OC1=O [Comparator Compound 13, reference compound]

- pIC50 [1, 12]: 4.80
- pIC50 [2]: 4.88
- pIC50 [3]: 4.54
SMILES: C[C@@H](c1ccc(-c2ccc(=O)n(C3CC3)n2)cc1)N1CC[C@](CC(C)(C)O)(c2ccccc2)OC1=O [Example 20*, 3-{(S)-1-[4-(1-Cyclopropyl-6-oxo-1,6-dihydro-pyridazin-3-yl)-phenyl]-ethyl}-(S)-6-(2-hydroxy-2-methyl-propyl)-6-phenyl-[1,3]oxazinan-2-one]

- pIC50 [1, 12]: 5.36
- pIC50 [2]: 5.07
- pIC50 [3]: 5.64
- pIC50 (CYP2C9 [4]): 5.30
SMILES: C[C@@H](c1ccc(-c2ccc(F)cc2F)cc1)N1CC[C@](CC(C)(C)O)(c2ccc(F)cc2)OC1=O [Comparator Compound 6, reference compound]

- pIC50 (CYP2C9 [4]): 4.57
SMILES: O=C1O[C@@](CCO)(c2ccccc2)CCN1c1cccc(-c2ccc(F)cc2F)c1 [Comparator Compound 1]

- fraction unbound [5]: 0.007
- pIC50 [1, 12]: 4.85
SMILES: C[C@@H](c1ccc(-c2ccc(F)cc2)cc1)N1CC[C@](CCC(N)=O)(c2ccccc2)OC1=O [Comparator Compound 11, reference compound]

- pIC50 (CYP2C9 [4]): 5.85
SMILES: O=C1OC(CCO)(c2ccccc2F)CCN1c1cccc(-c2ccc(F)cc2F)n1 (stereo not drawn) [Comparator Compound 2]

- fraction unbound [5]: 0.004
- pIC50 [1, 12]: 5.31
SMILES: C[C@@H](c1ccc(-c2ccc(F)cc2)cc1)N1CC[C@](CC(C)(C)O)(c2ccccc2)OC1=O [Comparator Compound 12, reference compound]

- pIC50 [1, 12]: 4.51
- pIC50 [2]: < 4.30
- pIC50 [3]: < 4.30
SMILES: Cc1cc(-c2ccc([C@H](C)N3CC[C@](CC(C)(C)O)(c4ccccc4)OC3=O)cc2)nn(C)c1=O [Example 17*, 3-{(S)-1-[4-(1,5-Dimethyl-6-oxo-1,6-dihydro-pyridazin-3-yl)-phenyl]-ethyl}-(S)-6-(2-hydroxy-2-methyl-propyl)-6-phenyl-[1,3]oxazinan-2-one]

- pIC50 (CYP2C9 [4]): 5.29
SMILES: O=C1O[C@@](CCO)(c2ccccc2)CCN1c1cccc(-c2ccc(F)cc2)n1 [Comparator Compound 4]

Further lines, the compound ahead of its results:

SMILES: C[C@@H](c1ccc(-c2ccc(=O)n(C)n2)cc1)N1CC[C@](CC(C)(C)O)(c2ccccc2)OC1=O [Example 12, (S)-6-(2-hydroxy-2-methylpropyl)-3-((S)-1-(4-(1-methyl-6-oxo-1,6-dihydropyridazin-3-yl)phenyl)ethyl)-6-phenyl-1,3-oxazinan-2-one]
- fraction unbound [5]: 0.022
- pIC50 (CYP2C9 [6]): < 4.30
- pIC50 [7]: < 4.30

SMILES: CCn1nc(-c2ccc([C@H](C)N3CC[C@](CC(C)(C)O)(c4ccccc4)OC3=O)cc2)ccc1=O [Example 14, (S)-3-((S)-1-(4-(1-ethyl-6-oxo-1,6-dihydropyridazin-3-yl)phenyl)ethyl)-6-(2-hydroxy-2-methylpropyl)-6-phenyl-1,3-oxazinan-2-one]
- pIC50 ([1]; human): 4.49
- pIC50 [8]: < 4.30
- pIC50 [9]: 4.33

SMILES: C[C@@H](c1ccc(-c2ccc(=O)n(C)n2)cc1)N1CC[C@](CCCO)(c2ccc(F)cc2)OC1=O [Example 10, (R)-6-(4-fluorophenyl)-6-(3-hydroxypropyl)-3-((S)-1-(4-(1-methyl-6-oxo-1,6-dihydropyridazin-3-yl)phenyl)ethyl)-1,3-oxazinan-2-one]
- pIC50 (CYP2C9 [10]): 4.85

SMILES: Cc1cc(=O)n(C)nc1-c1ccc([C@H](C)N2CC[C@](CC(C)(C)O)(c3ccccc3)OC2=O)cc1 [Example 18*, 3-{(S)-1-[4-(1,4-Dimethyl-6-oxo-1,6-dihydro-pyridazin-3-yl)-phenyl]-ethyl}-(S)-6-(2-hydroxy-2-methyl-propyl)-6-phenyl-[1,3]oxazinan-2-one]
- pIC50 ([1]; human): < 4.30
- pIC50 [2]: < 4.30
- pIC50 [3]: < 4.30
- inhibition at 0.1 µM [11]: 63%

SMILES: C[C@@H](c1ccc(-c2ccc(=O)n(CC3CC3)n2)cc1)N1CC[C@](CC(C)(C)O)(c2ccccc2)OC1=O [Example 19*, 3-{(S)-1-[4-(1-Cyclopropylmethyl-6-oxo-1,6-dihydro-pyridazin-3-yl)-phenyl]-ethyl}-(S)-6-(2-hydroxy-2-methyl-propyl)-6-phenyl-[1,3]oxazinan-2-one]
- pIC50 ([1]; human): 5.24
- pIC50 [9]: 5.27

SMILES: C[C@@H](c1ccc(OC(F)F)cc1)N1CC[C@](CCO)(c2ccc(F)cc2)OC1=O [Comparator Compound 14, reference compound]
- pIC50 [1, 12]: 4.71
- pIC50 [8]: 4.59
- pIC50 [9]: 5.19
- pIC50 (CYP2C9 [10]): 4.61

SMILES: C[C@@H](c1ccc(-c2ccc(=O)n(CC(F)(F)F)n2)cc1)N1CC[C@](CC(C)(C)O)(c2ccccc2)OC1=O [Example 16, (S)-6-(2-hydroxy-2-methylpropyl)-3-((S)-1-(4-(6-oxo-1-(2,2,2-trifluoroethyl)-1,6-dihydropyridazin-3-yl)phenyl)ethyl)-6-phenyl-1,3-oxazinan-2-one]
- pIC50 [1, 12]: 4.81
- pIC50 [8]: 4.89
- pIC50 [9]: 4.72

SMILES: C[C@@H](c1ccc(Br)cc1)N1CC[C@](CC(C)(C)O)(c2ccccc2)OC1=O [Comparator Compound 15, reference compound]
- pIC50 [1, 12]: 5.51
- pIC50 [8]: 5.11
- pIC50 [9]: > 6.40
- pIC50 (CYP2C9 [10]): 5.02

SMILES: C[C@@H](c1ccc(-c2ccc(=O)n(C)n2)cc1)N1CC[C@](CC(C)(C)O)(c2ccc(F)cc2)OC1=O [Example 13, (S)-6-(4-fluorophenyl)-6-(2-hydroxy-2-methylpropyl)-3-((S)-1-(4-(1-methyl-6-oxo-1,6-dihydropyridazin-3-yl)phenyl)ethyl)-1,3-oxazinan-2-one]
- pIC50 [1, 12]: < 4.30
- pIC50 [8]: < 4.30
- pIC50 [9]: < 4.30
